# Measured values from US20040110681A1, “Method to identify targeting molecules” (priority 2002, published 2004).
# Positions of bridges follow the written chain, without caps; N, C: chain ends. Non-standard residues stand in square brackets, D forms with d. Residues, ends and D or L forms follow the SMILES beside them. hArg = N=C(N)NCCCC[C@H](N)C(=O)O; Mpa = O=C(O)CCS
# Key:
# [1] = tested on: platelets adhering to the pial vasculature; assay: Intravital microscopy of platelet adhesion to pial vessels, LPS-induced model of sepsis
# Experimental: The effect of the A3 mimetic of blood cell adhesion to brain vasculature was assessed by intravital microscopy. Platelets or leukocytes were fluorescently labeled and then the interaction of the labeled cells with the vascular endothelium imaged and analyzed pre and post the addition of various compounds. Platelets were isolated from blood of source animals by differential centrifugation at 200 g for 10 minutes, to pellet erythrocytes and leukocytes. The supernatant, designated platelet-rich plasma contained less than 0.5% leukocytes as determined by the number of DAPI-positive nucleated cells. The platelets were pelleted by spinning at 500 g, resuspended in Tyrode's buffer and incubated for 20 min with 5-,-6-carboxyfluorescein diacetate, succinimidyl ester (CFDA, or CFSE). 1×10^8 platelets in 0.1 ml were injected slowly over 5 minutes via a carotid catheter into anesthetized mice. […] Platelet rolling and adhesion was recorded for off-line analysis onto videotape or onto hard-drive of the computer via an intensified camera (Cascade, Roper Scientific) on a Leica DM-FSA upright microscope. […] Leukocytes are fluorescence-labeled in vivo by injecting Rhodamine 6G via a carotid catheter and analyzing the movement of the labeled cells on brain endothelium.
# For the platelet studies a known antagonist of platelet-platelet interactions, Integrilin™ (Cor Therapeutics) was also evaluated. […]
# [2] = Pharmacokinetic analysis, plasma half-life of fusion protein and free peptide; format: in vivo; settings: read-out: plasma t½
# [3] = tested on: brain tissue; assay: Individual peptide variants of A3 on phage, brain selectivity index vs T7-lacZ; format: in vivo, FVB or BALB/c mice; settings: 2 hours circulation; for Brain Targeting Activity: 0.5-1×10^10 pfu co-injected with T7-lacZ; for Selectivity index (FVB female) / Selectivity index (BALB/C mice): brain tissue; for Selectivity index (FVB female): FVB female mice
# Experimental: In this example, various individual peptide variants of A3 were tested in vivo for their ability to target brain or other tissues. […] The phage contents of each organ were determined by plaque assay in the presence of X-gal (500 μg/mL) in top agar.
# Thus, selectively indices of less than 10 are considered low, those between 10 and […] are considered moderate and those over 100 are considered high.
# [4] = tested on: brain; assay: kSAR: co-injection of all 20 CAGAXCY (position 5) phage variants, sequence frequency in brain; format: in vivo, BALB/c mice
# Experimental: To determine the optimum amino acid for position 5, all 20 variants at this position were injected. For co-injection of all 20 variants of CAGAXCY phage, individual phage were grown up and titered. Equivalent amounts of each phage type were added to PBS and 200 μL dose of the mixture was injected into 3 BALB/c mice per group (two time points of 30 minutes and 4 hours were studied, total of 6 mice). At 30 min and 4 hrs post injection, the mice were anesthetized, perfused and blood and brain were harvested. Aliquots of both the initial phage pool used for dosing as well as brain tissue samples were plated out, and approximately 100 individual plaques from each set were amplified by PCR using the T7 Super up primer method and sequenced using a CEQ 2000XL sequencer (Beckman Coulter, Calif.).
# A total of 107 individual phage from the initial mixture used for dosing were sequenced to verify the relative abundance of the individual phage within the administered dose and these were compared with the relative frequency of the different phage recovered from brain after 30 minutes or 4 hours of circulation. There was a marked and rapid shift in frequency even by 30 minutes, where there was a marked enrichment of phage expressing N at the X5 position, (from 7% in the initial pool to 49%), M (from 5% to 24%) or L (2.8% to 12%) at 30 minutes.
# [5] = tested on: brain; assay: CX4CY phage library, one round of in vivo panning to brain; set-up: species or system BALB/c mice; settings: 4 hrs post phage injection
# Experimental: A CX4CY library was prepared and tested. 1×10^10 pfu of the library phage were injected into 6 BALB/c mice (3 mice/time point). At 30 min and 4 hr post-injection, brain was harvested and processed as described above. Similar numbers of plaques were picked individually, and the insert sequence amplified by PCR and sequenced. Alignment analysis of the sequence data was performed with a version of Clustral/W.
# [6] = tested on: brain; assay: Head to head comparison of CAGAXCY variants (L5, N5, M5) vs control lacZ phage; format: in vivo; settings: 6 hours after administration vs 2 hours
# [7] = 30 minutes after injection of 20-variant mixture
# [8] = 4 hours after injection of 20-variant mixture
molecule,measurement,setting,value
N=C(N)NCCCC[C@@H]1NC(=O)CCSSC[C@@H](C(N)=O)NC(=O)[C@@H]2CCCN2C(=O)[C@H](Cc2c[nH]c3ccccc23)NC(=O)[C@H](CC(=O)O)NC(=O)CNC1=O [Integrilin] ([Mpa][hArg]GDWPC-NH2; disulfide 1-7),platelet adhesion to pial vessels,"[1]; 4 hours after i.p. 10 μg LPS, Integrilin at 40 mg/kg",slight antagonistic effect
same,DIC and adhesion of microaggregates to the brain vasculature,[1]; higher doses than 40 mg/kg,exacerbated DIC and adhesion of microaggregates to the brain vasculature
"CC(C)C[C@@H]1NC(=O)[C@H](C)NC(=O)CNC(=O)[C@H](C)NC(=O)[C@@H](N)CSSC[C@@H](C(=O)N[C@@H](Cc2ccc(O)cc2)C(=O)O)NC1=O [free synthetic peptide, CAGALCY] (H-CAGALCY-OH; disulfide 1-6)",half-life,[2],1 to 2 min
CAGAGCY,Brain Targeting Activity,[3],No
same,Brain Targeting Activity,[3]; listed as L5G,loss of brain targeting activity
same,Selectivity index (FVB female),[3],1.1
CAGALC,Brain Targeting Activity,[3],No
same,Selectivity index (FVB female),[3],1.5
CAGALCAY,Brain Targeting Activity,[3],brain targeting activity is lost and No
same,Selectivity index (FVB female),[3],1.4
CAGALCF,Brain Targeting Activity,[3],Yes
same,Selectivity index (BALB/C mice),[3],800
same,Selectivity index (FVB female),[3],>200
CAGALCS,Brain Targeting Activity,[3],loss of brain targeting activity and No
same,Selectivity index (FVB female),[3],3.0
CAGALSY,Brain Targeting Activity,[3],brain targeting capacity is lost and No
same,Selectivity index (FVB female),[3],1.9
CAGAMCY,frequency of phage variant recovered from brain,[4]; [7],24%
same,frequency of phage variant recovered from brain,[4]; [8],37%
same,enrichment among 83 sequences sampled from the brain,[5],no enriched phage
same,change of brain SI values,[6],increase further
CAGANCY,frequency of phage variant recovered from brain,[4]; [7],49%
same,frequency of phage variant recovered from brain,[4]; [8],55%
same,enrichment among 83 sequences sampled from the brain,[5],no enriched phage
same,change of brain SI values,[6],slight decrease
CAGAPCY,Brain Targeting Activity,[3],brain targeting capacity is lost and No
same,Selectivity index (FVB female),[3],7.6
CAGDSMCY [reference compound],Brain Targeting Activity,[3],negative and No
same,Selectivity index (BALB/C mice),[3],0.9
CAGGLCY,Brain Targeting Activity,[3],No
same,Brain Targeting Activity,[3]; listed as A4G,loss of brain targeting activity
same,Selectivity index (FVB female),[3],0.9
CALCY,Brain Targeting Activity,[3],No
same,Selectivity index (FVB female),[3],0.8
CDITEYC [reference compound],Brain Targeting Activity,[3],No
same,Selectivity index (BALB/C mice),[3],1
same,Selectivity index (FVB female),[3],0.4
CGADALCY,Brain Targeting Activity,[3],No
same,Selectivity index (BALB/C mice),[3],1
CGALCY,Brain Targeting Activity,[3],No
same,Selectivity index (FVB female),[3],0.8
CGFDMPC [reference compound],Brain Targeting Activity,[3],No
same,Selectivity index (FVB female),[3],0.5
CGGALCY,Brain Targeting Activity,[3],No
same,Brain Targeting Activity,[3]; listed as A2G,loss of brain targeting activity
same,Selectivity index (FVB female),[3],0.7
CLCY,Brain Targeting Activity,[3],No
same,Selectivity index (FVB female),[3],3.5
CPADCY [reference compound],Brain Targeting Activity,[3],No
same,Selectivity index (FVB female),[3],0.3
CRDVNECD [reference compound],Brain Targeting Activity,[3],No
same,Selectivity index (BALB/C mice),[3],1
same,Selectivity index (FVB female),[3],0.3
CYGDPC [reference compound],Brain Targeting Activity,[3],No
same,Selectivity index (FVB female),[3],0.8
YCDAPC [reference compound],Brain Targeting Activity,[3],No
same,Selectivity index (FVB female),[3],0.7
